Measurements reported in patent US7541398B2, “Method for transformation of conventional and commercially important polymers into durable and rechargeable antimicrobial polymeric materials” (priority 2005, dated 2009).

Assay: Durability of SHC powders: active chlorine content titrated after storage under ambient conditions
Assay type: physicochemical
Conditions: for active chlorine content: as synthesized, before storage; for Active chlorine content, 2 month / Active chlorine content, 4 month / Active chlorine content, 6 month: storage at about 25° C.±3, humidity about 60±10%
Procedure: Durability and Rechargeability of the SHCs. Durability: After storage under ambient conditions (e.g., temperature about 25° C.±3, humidity about 60±10%) for a certain period of time, the active chlorine contents in the SHC samples were titrated and the results were listed in Table 3.

With `CC1(C)CC(OC(=O)CCCCCCCCC(=O)OC2CC(C)(C)N(Cl)C(C)(C)C2)CC(C)(C)N1Cl` [SHC-1, Bis(N-chloro-2,2,6,6-tetramethyl-4-piperidyl)sebacate] the active chlorine content was 12.5%, the “Active chlorine content, 2 month” value was 12.6 wt. % and the “Active chlorine content, 4 month” value was 12.8 wt. %. For the same molecule, the “Active chlorine content, 6 month” value was 12.4 wt. %.
For “N-chloro-[(2,2,6,6-tetramethyl-4-piperidyl) alkyl formate] [SHC-3]”, the active chlorine content was “about 7.86%”, the “Active chlorine content, 2 month” value was 8.10 wt. % and the “Active chlorine content, 4 month” value was 7.70 wt. %. For the same molecule, the “Active chlorine content, 6 month” value was 7.30 wt. %.
